Test results: patent publication US12448382B2, “Heterocyclic compounds for mediating tyrosine kinase 2 activity” (GUANGZHOU INNOCARE PHARMA TECH CO., LTD., priority 2019, dated 2025)

What was measured:
[1] = biological target: T1, human recombinant JAK2 protein (Homo sapiens, UniProt O60674); experiment: JAK2 Inhibition Assay (HTRF kinase assay); format: biochemical; settings: human recombinant JAK2, 2.5 μM ATP substrate solution
T1 construct: purchased Carna Biosciences 08-045
Description: The effect of the compounds of the present invention on the enzymatic activity of JAK2 was assessed by detecting the substrate phosphorylation level in a kinase reaction using the HTRF kinase assay detection kit (Cisbio, Cat. No. 62TK0PEC).
(§1) The experimental method is generally described below:
A reaction buffer contained the following components: an enzyme reaction buffer (1×), 5 mM MgCl2, 1 mM DTT and 0.01% Brij35 from the kit. A JAK2 kinase solution contained a human recombinant JAK2 protein (Carna Biosciences, 08-045) diluted in the reaction buffer to 0.15 ng/μL. A substrate reaction solution contained 2.5 μM ATP and 0.25 μM of a biotinylated tyrosine kinase substrate from the kit in the reaction buffer. A detection solution contained 0.1 ng/μL Eu^3+-labeled cage antibody (Cisbio, 61T66KLB) and 12.5 nM streptavidin-labeled XL665 (Cisbio, 610SAXLB) in the reaction buffer.
(§2) The test compound was dissolved in DMSO to 10 μM, followed by a serial 4-fold dilution with DMSO to a minimum concentration of 0.061 nM. Each concentration was further diluted 40-fold with the reaction buffer.
To a 384-well assay plate (Corning, 3674) were added 4 μL of compound solution and 2 μL of JAK2 kinase solution. The mixture was mixed and incubated at room temperature for 15 minutes, and then added with 4 μL of the substrate reaction solution. After further incubation at room temperature for 30 minutes, the reaction mixture was added with an equal volume of 10 μL detection solution and allowed to stand at room temperature for 30 minutes. An Envision plate reader (Perkin Elmer) was then used to measure the progress of the reaction at 620 nm and 665 nm. The ratio of absorbances at 665 nm and 620 nm was positively correlated with the degree of substrate phosphorylation, therefore the activity of JAK2 kinase was detected. In the experiment, the group without JAK2 kinase protein was treated as the 100% inhibition group, and the group with JAK2 kinase protein but not the test compound was treated as the 0% inhibition group. The percentage of inhibition on JAK2 kinase activity by the test compound was calculated using the following formula: Percentage of inhibition=100−100*(ratiocompound−ratio100% inhibition)/(ratio0% inhibition−ratio100% inhibition)
The IC50 value of the test compound was calculated from 8 concentration points using the XLfit softwere (ID Business Solutions Ltd., UK) by the following formula: Y=Bottom+(Top−Bottom)/(1+10^((log IC50−X)×slope factor))
Where Y was the percentage of inhibition, X was the logarithm of the concentration of the test compound. Bottom was the bottom plateau value of the S-shaped curve, Top was the top plateau value of the S-shaped curve, and slope factor was the slope coefficient of the curve.

[2] = system: IL-12-induced IFN-γ secretion in NK92 cells; experiment: Inhibition of IL-12-induced IFN-γ Secretion in NK92 Cells (ELISA); format: cell-based, human; settings: Homo sapiens, 24 hours incubation, 8 concentration points, read-out: IC50 (NK92_IL12/IFNγ)
Description: Inhibition of IL-12-induced IFN-γ Secretion in NK92 Cells
The effect of the compounds of the present invention on IFN-γ secretion induced by IL-12 in NK92 cells was evaluated by an enzyme-linked immunosorbent assay (ELISA).
IL-12 receptor is mainly expressed in activated T-cells, NK cells (NK92 is a NK cell line), DC cells, and B-cells. When binding to IL-12, it activates JAK2/TYK2 signal transduction pathway within NK cells and T lymphocytes, thereby inducing secretion of IFN-γ.
as §1
The test compound was dissolved in DMSO to 2.5 mM, followed by a serial 4-fold dilution with DMSO to a minimum concentration of […]. Each concentration was further diluted 50-fold with an FBS-free MEMα medium (Gibco, 12561-056).
NK92 cells (Nanjing Cobioer, CBP60980) were cultured in a complete MEMα medium containing 12.5% FBS (Ausbian, VS500T), 12.5% horse serum (Gibco, 16050-122), 0.02 mM folic acid (Sigma, F8758), 0.2 mM inositol (Sigma, 17850), 0.55 mM β-mercaptoethanol (Gibco, 21985-023), 200 U/mL IL-2 (R&D Systems, 202-1L), and 100 U/mL penicillin (Thermofisher, 15140122). When covering 80-90% of the culture container surface, the cells were dispersed and plated on a 96-well plate (Thermofisher, 167425) with 100,000 cells per well (80 μL of the complete MEMα medium without IL-2). The 96-well plate was then incubated overnight in a 37° C./5% CO2 incubator.
After overnight incubation, 10 μL of the test compound and 10 μL of 50 ng/mL IL-12 (R & D Systems, 219-1L) were added to each well and mix gently, and the 96-well plate was incubated in the 37° C./5% CO2 incubator for additional 24 hours. The plate as centrifuged at 800 rpm for 10 minutes at room temperature and 50 μL of the supernatant from each well was transferred to another 96-well plate (Sigma, CLS3695) coated with anti-IFN-γ antibody. The amount of IFN-γ secretion was detected following the instruction from the Human IFN-γ DuoSet ELISA kit (R & D Systems, DY285B). In the experiment, the group with IL-12 and the test compound being replaced with the MEMα medium was the non-stimulated control group (100% inhibition), and the group with IL-12 and 0.2% DMSO was the stimulated group (0% inhibition). The percentage of inhibition on IL-12 induced IFN-γ secretion in NK-92 cells by the test compound was calculated using the following formula: Percentage of inhibition=100−100*(signalcompound−signalnon-stimulated control)/(signalstimulated control−signalnon-stimulated control)
The IC50 value of the test compound was calculated front 8 concentration points using the XLfit software (ID Business Solutions Ltd., UK) by the following formula: Y=Bottom+(Top−Bottom)/(1+10^((log IC50−X)×slope factor))
(§3) Where Y was the percentage of inhibition, X was the logarithm of the concentration of the test compound, Bottom was the bottom plateau value of the S-shaped curve, Top was the top plateau value of the S-shaped curve, and slope factor was the slope coefficient of the curve.

[3] = biological target: T2, human recombinant TYK2 protein (Homo sapiens, UniProt P29597); experiment: TYK2 Inhibition Assay (HTRF kinase assay); format: biochemical; settings: human recombinant TYK2, 11.25 μM ATP substrate solution
T2 construct: purchased Carna Biosciences 08-147
T2 sequence (P29597 871-1187 limits assumed): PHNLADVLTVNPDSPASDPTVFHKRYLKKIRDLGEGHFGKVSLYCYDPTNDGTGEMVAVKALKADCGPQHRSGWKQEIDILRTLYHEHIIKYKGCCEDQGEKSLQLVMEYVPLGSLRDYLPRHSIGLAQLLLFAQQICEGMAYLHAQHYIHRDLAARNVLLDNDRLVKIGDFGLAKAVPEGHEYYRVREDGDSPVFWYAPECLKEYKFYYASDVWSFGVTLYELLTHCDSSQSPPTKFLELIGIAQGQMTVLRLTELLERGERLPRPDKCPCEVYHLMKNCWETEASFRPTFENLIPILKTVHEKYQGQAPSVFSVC
Description: The effect of the compounds of the present invention on the enzymatic activity of TYK2 was assessed by detecting the substrate phosphorylation level in a kinase reaction using the HTRF kinase assay detection kit (Cisbio, Cat. No. 62TK0PEC).
as §1
A reaction buffer contained the following components: an enzyme reaction buffer (1×), 5 mM MgCl2 mM DTT and 0.01% Brij35 from the kit. A TYK2 kinase solution contained human recombinant TYK2 protein (Carna Biosciences, 08-147) diluted in the reaction buffer to 0.25 ng/μL. A substrate reaction solution contained 11.25 μM ATP and 0.5 μM of a biotinylated tyrosine kinase substrate from the kit in the reaction buffer. A detection solution contained 0.1 ng/μL Eu^3+-labeled cage antibody (Cisbio, 61T66KLB) and 25 nM streptavidin-1 added XL665 (Cisbio, 610SAXLB) in the reaction buffer.
as §2
To a 384-well assay plate (Corning, 3674) were added 4 μL of compound solution and 2 μL of TYK2 kinase solution. The mixture was mixed and incubated at room temperature for 15 minutes, and then added with 4 μL of the substrate reaction solution. After further incubation at room temperature for 40 minutes, the reaction mixture was added with an equal volume of 10 μL detection solution and allowed to stand at room temperature for 30 minutes. An Envision plate reader (Perkin Elmer) was then used to measure the progress of the reaction at 620 nm and 665 nm. The ratio of absorbances at 665 nm and 620 nm was positively correlated with the degree of substrate phosphorylation, therefore the activity of TYK2 kinase was detected. In the experiment, the group without TYK2 kinase protein was treated as the 100% inhibition group, and the group with TYK2 kinase protein but not the test compound was treated as the 0% inhibition group. The percentage of inhibition on TYK2 kinase activity by the test, compound was calculated using the following formula: Percentage of inhibition=100−100*(ratiocompound−ratio100% inhibition)/(ratio0% inhibition−ratio100% inhibition)
The IC50 value of the test compound was calculated from 8 concentration points using the XLfit software (ID Business Solutions Ltd., UK) by the following formula: Y=Bottom+(Top−Bottom)/(1+10^((log IC50−X)slope factor))
as §3

T1 sequence (O60674 826-1132 limits assumed): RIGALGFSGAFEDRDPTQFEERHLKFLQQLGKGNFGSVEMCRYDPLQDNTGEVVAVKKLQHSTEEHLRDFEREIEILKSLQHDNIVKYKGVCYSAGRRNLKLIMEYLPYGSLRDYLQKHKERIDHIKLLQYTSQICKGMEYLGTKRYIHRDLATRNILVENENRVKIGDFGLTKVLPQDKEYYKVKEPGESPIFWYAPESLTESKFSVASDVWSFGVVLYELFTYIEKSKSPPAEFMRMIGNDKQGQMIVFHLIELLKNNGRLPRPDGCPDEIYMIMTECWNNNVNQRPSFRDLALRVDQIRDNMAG

| IC50 [1] | IC50 [2] | IC50 [3] | Compound |
| --- | --- | --- | --- |
| 19 nM | 5390 nM | 12 nM | Cn1cc(Nc2ncc(Cl)c(N3C[C@]4(C)CN(C(=O)C(C)(C)C#N)C[C@]4(C)C3)n2)cn1 [Compound 45, 3-((3aR,6aS)-5-(5-chloro-2-((1-methyl-1H-pyrazol-4-yl)amino)pyrimidin-4-yl)-3a,6a-dimethylhexahydropyrrolo[3,4-c]pyrrol-2(1H)-yl)-2,2-dimethyl-3-oxopropanenitrile] |
| 1.8 nM | 289 nM | 0.9 nM | Cn1cc(Nc2ncc(Cl)c(N3C[C@]4(C)CN(C(=O)CC(F)F)C[C@]4(C)C3)n2)cn1 [Compound 52] |
| 3.3 nM | 453 nM | 0.6 nM | Cn1cc(Nc2ncc(Cl)c(N3C[C@]4(C)CN(C(=O)CO)C[C@]4(C)C3)n2)cn1 [Compound 35, 1-((3aR,6aS)-5-(5-chloro-2-((1-methyl-1H-pyrazol-4-yl)amino)pyrimidin-4-yl)-3a,6a-dimethylhexahydropyrrolo[3,4-c]pyrrol-2(1H)-yl)-2-hydroxyethan-1-one] |
| 18 nM | 3390 nM | 4.5 nM | Cn1cc(Nc2ncc(Cl)c(N3C[C@]4(C)CN(C(=O)C5(O)CC5)C[C@]4(C)C3)n2)cn1 [Compound 43, ((3aR,6aS)-5-(5-chloro-2-((1-methyl-1H-pyrazol-4-yl)amino)pyrimidin-4-yl)-3a,6a-dimethylhexahydropyrrolo[3,4-c]pyrrol-2(1H)-yl)(1-hydroxycyclopropyl)methanone] |

Second part, the compound before the results:

| Compound | IC50 [1] | IC50 [2] | IC50 [3] |
| --- | --- | --- | --- |
| [2H]C([2H])([2H])n1cc(Nc2ncc(Cl)c(N3C[C@@H]4CN(C(=O)CC#N)C[C@]4(C)C3)n2)cn1 [Compound 99, 3-((3aS,6aR)-5-(5-chloro-2-((1-(methyl-d3)-1H-pyrazol-4-yl)amino)pyrimidin-4-yl)-3a-methylhexahydropyrrolo[3,4-c]pyrrol-2(1H)-yl)-3-oxopropanenitrile] | 0.5 nM | 158 nM | 0.1 nM |
| Cn1cc(Nc2ncc(Cl)c(N3C[C@H]4CN(C(=O)C5CC5)C[C@@]4(C)C3)n2)cn1 [Compound 87, ((3aR,6aS)-5-(5-chloro-2-((1-methyl-1H-pyrazol-4-yl)amino)pyrimidin-4-yl)-3a-methylhexahydropyrrolo[3,4-c]pyrrol-2(1H)-yl)(cyclopropyl)methanone] | 9 nM | 959 nM | 6 nM |
| Cc1cc(CN2C[C@@]3(C)CN(c4nc(Nc5cnn(C)c5)ncc4Cl)C[C@@]3(C)C2)on1 [Compound 78, 5-chloro-4-((3aR,6aS)-3a,6a-dimethyl-5-((3-methylisoxazol-5-yl)methyl)hexahydropyrrolo[3,4-c]pyrrol-2(1H)-yl)-N-(1-methyl-1H-pyrazol-4-yl)pyrimidin-2-amine] | 7.6 nM | 2760 nM | 4.2 nM |
| CNC(=O)c1ccc(Nc2ncc(Cl)c(N3C[C@]4(C)CN(C(=O)C5CC5)C[C@]4(C)C3)n2)cn1 [Compound 51, 5-((5-chloro-4-((3aR,6aS)-5-(cyclopropanecarbonyl)-3a,6a-dimethylhexahydropyrrolo[3,4-c]pyrrol-2(1H)-yl)pyrimidin-2-yl)amino)-N-methylpicolinamide] | 7.3 nM | 597 nM | 2.7 nM |
| Cn1cc(Nc2ncc(Cl)c(N3C[C@@H]4CN(C(=O)C5CC5)C[C@]4(C)C3)n2)cn1 [Compound 86, ((3aS,6aR)-5-(5-chloro-2-((1-methyl-1H-pyrazol-4-yl)amino)pyrimidin-4-yl)-3a-methylhexahydropyrrolo[3,4-c]pyrrol-2(1H)-yl)(cyclopropyl)methanone] | 1.7 nM | 99 nM | 0.3 nM |
| Cn1cc(Nc2nccc(N3C[C@@H]4CN(Cc5ccno5)C[C@]4(C)C3)n2)cn1 (relative stereo) [Compound 69, cis-4-(5-(isoxazol-5-ylmethyl)-3a-methylhexahydropyrrolo[3,4-c]pyrrol-2(1H)-yl)-N-(1-methyl-1H-pyrazol-4-yl)pyrimidin-2-amine] | 156 nM | 7060 nM | 98 nM |
